From patent US20250161286A1 (AEVIS BIO, INC., priority 2022, published 2025)

Experiment: Cytotoxicity evaluation, CCK analysis kit
Assay type: cell-based
Conditions: human, MM.1S (CRL-2974) multiple myeloma cells; MM.1S cells, treated for 3 days
Method: The MM.1S (CRL-2974) cell line, which is a human multiple myeloma cell line, was purchased from the American Type Culture Collection (ATCC, Manassas, VA, USA) and used, and incubated using RPMI1640 medium (Corning, MD, USA) supplemented with 10% fatal bovine serum (Corning, MD, USA), 100 U/ml of penicillin (Corning, MD, USA), and 100 μg/ml of streptomycin (Corning, MD, USA) at 37° C. in a 5% CO2 incubator for 24 hours.

Compound: Nc1cccc2c1C(=O)N(C1CCC(=O)NC1=O)C2=O (racemic) [pomalidomide, (R,S)-4-amino-2-(2,6-dioxopiperidin-3-yl)isoindole-1,3-dione, reference compound]
- IC50 at 3 days: 69 nM
